The source made the active and inactive calls. The calls are words filed in the database; no cut-off is given here.
Tests used:
[1] = Antiproliferative activity against human iPSC derived cardiomyocytes assessed as fold increase in cell number at 100 nM incubated for 4 days without passaging by Hoechst staining based analysis; assay type: functional, iPSC-CM; details: time 4 day
[2] = Cytotoxicity against human iPSC derived cardiomyocytes at >=500 nM incubated for 4 days without passaging by Hoechst staining based analysis; assay type: toxicity, cell-based; details: ipsc-cm, 96 h, 0.5 µM, time 4 day
Forkhead box protein O1 = Forkhead box protein O1 (Homo sapiens, UniProt Q12778); assay: Inhibition of FOXO-1 in human HepG2 cells incubated for 20 hrs by Renilla luciferase reporter gene assay; assay type: cell-based
Forkhead box protein O1, sequence (Q12778 whole entry): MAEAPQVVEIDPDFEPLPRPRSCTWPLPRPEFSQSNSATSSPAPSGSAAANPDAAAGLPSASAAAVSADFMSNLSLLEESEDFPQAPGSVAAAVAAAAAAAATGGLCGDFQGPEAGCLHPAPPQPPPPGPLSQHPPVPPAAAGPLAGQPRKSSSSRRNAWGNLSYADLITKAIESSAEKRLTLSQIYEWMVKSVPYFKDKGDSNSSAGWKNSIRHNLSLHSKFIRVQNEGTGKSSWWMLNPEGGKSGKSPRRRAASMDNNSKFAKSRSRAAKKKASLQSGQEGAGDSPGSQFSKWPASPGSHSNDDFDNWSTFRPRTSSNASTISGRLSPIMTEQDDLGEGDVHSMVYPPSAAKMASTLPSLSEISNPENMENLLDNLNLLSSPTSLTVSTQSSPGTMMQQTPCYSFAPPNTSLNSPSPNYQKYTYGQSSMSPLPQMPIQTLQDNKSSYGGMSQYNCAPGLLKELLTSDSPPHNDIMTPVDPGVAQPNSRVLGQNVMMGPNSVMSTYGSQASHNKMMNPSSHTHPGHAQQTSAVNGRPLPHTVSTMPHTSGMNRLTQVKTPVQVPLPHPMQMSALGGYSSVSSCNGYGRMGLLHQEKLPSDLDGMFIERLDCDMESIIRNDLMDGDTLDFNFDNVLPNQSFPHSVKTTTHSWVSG

[3] = (§1) Antiproliferative activity against human iPSC derived cardiomyocytes assessed as increase in cell number by measuring fold change after 3 passages at 100 nM incubated for 2 days by Hoechst staining based analysis; assay type: functional, iPSC-CM; details: time 2 day
iPSC-CM [4] = assay: as §1; assay type: functional; details: time 2.0 day
iPSC-CM [5] = assay: Upregulation of MYH6 gene expression in human iPSC derived cardiomyocytes at 100 nM incubated for 5 days by qRT-PCR analysis; assay type: functional, cell-based; details: time 5.0 day
iPSC-CM [6] = assay: Upregulation of TBX2 gene expression in human iPSC derived cardiomyocytes at 100 nM incubated for 5 days by qRT-PCR analysis; assay type: functional, cell-based; details: time 5.0 day
iPSC-CM [7] = assay: Upregulation of IRX4 gene expression in human iPSC derived cardiomyocytes aat 100 nM incubated for 5 days by qRT-PCR analysis; assay type: functional, cell-based; details: time 5.0 day
iPSC-CM [8] = assay: Downregulation of MYH7 gene expression in human iPSC derived cardiomyocytes measured after two passages following incubation for 5 days by qRT PCR analysis; assay type: functional, cell-based; details: dose 3-100 nM, time 5.0 day, DDE = dose-dependent effect
iPSC-CM [9] = assay: Downregulation of MYL2 gene expression in human iPSC derived cardiomyocytes measured after two passages following incubation for 5 days by qRT PCR analysis; assay type: functional, cell-based; details: dose 3-100 nM, time 5.0 day, DDE = dose-dependent effect
iPSC-CM [10] = assay: Downregulation of NPPA gene expression in human iPSC derived cardiomyocytes measured after two passages following incubation for 5 days by qRT PCR analysis; assay type: functional, cell-based; details: dose 3-100 nM, time 5.0 day, DDE = dose-dependent effect
iPSC-CM [11] = assay: Downregulation of MLC2v protein level in human iPSC derived cardiomyocytes at 100 nM incubated for 3 weeks by immunofluorescence assay; assay type: functional, cell-based
iPSC-CM [12] = assay: Downregulation of ANP protein level in human iPSC derived cardiomyocytes at 100 nM incubated for 3 weeks by immunofluorescence assay; assay type: functional, cell-based
iPSC-CM [13] = assay: Downregulation of MYH7 gene expression in human iPSC derived cardiomyocytes at 100 nM incubated for 5 days by qRT-PCR analysis; assay type: functional, cell-based; details: time 5.0 day
iPSC-CM [14] = assay: Downregulation of MYL2 gene expression in human iPSC derived cardiomyocytes at 100 nM incubated for 5 days by qRT-PCR analysis; assay type: functional, cell-based; details: time 5.0 day
iPSC-CM [15] = assay: Downregulation of NPPA gene expression in human iPSC derived cardiomyocytes at 100 nM incubated for 5 days by qRT-PCR analysis; assay type: functional, cell-based; details: time 5.0 day

CCn1cc(C(=O)O)c(=O)c2c(N)c(F)c(NC3CCCCC3)cc21
fold change (FC) [1]: >3
Activity [2]: Toxic
IC50 (Forkhead box protein O1): 33 nM
fold change (FC) [3]: >30
Activity (iPSC-CM [4]): Active
Activity (iPSC-CM [5]): Active
Activity (iPSC-CM [6]): Active
Activity (iPSC-CM [7]): Active
Activity (iPSC-CM [8]): Dde
Activity (iPSC-CM [9]): Dde
Activity (iPSC-CM [10]): Dde
Activity (iPSC-CM [11]): Active
Activity (iPSC-CM [12]): Active
Activity (iPSC-CM [13]): Active
Activity (iPSC-CM [14]): Active
Activity (iPSC-CM [15]): Active

Reference: ChEMBL document CHEMBL5143698, “Phenotypic screen identifies FOXO inhibitor to counteract maturation and promote expansion of human iPS cell-derived cardiomyocytes” (Bioorg Med Chem, 2022)
